Where “and” joins values, the source holds several entries; their conditions need not be identical. Equal entries are not always repeated.
Experiments:
Sprague-Dawley rats [1] = experiment: Small intestine ulceration after oral administration; format: in vivo, rat; conditions: rats fed, oral gavage, 24 h after dosing, IndoH 10 mg kg^−1, complexes 11 mg kg^−1, mean ± sem
Procedure: The rats were orally administered (non-anaesthetized) the Test Samples or Test Compositions via oral gavage. The controls were dosed with CMC (2%) solution.
(§1) The total volume of the MCT or carbopol paste compositions administered per dose in the assessment of gastrointestinal ulceration was no more than 0.5 g.

Sprague-Dawley rats [2] = experiment: Inhibition of carrageenan-induced paw edema, oral administration; format: in vivo, rat; conditions: for percent inhibition in rat hind-paw diameter change, 3-hr / percent inhibition in rat hind-paw diameter change, 5-hr: oral, IndoH 10 mg kg^−1, complex 11 mg kg^−1, mean(sem); for percent inhibition in rat hind-paw diameter change, 3-hr: 3 h post carrageenan; for percent inhibition in rat hind-paw diameter change, 5-hr: 5 h post carrageenan
Procedure: Inhibition of Carrageenan-Induced Paw Edema: Rats were orally administered (non-anaesthetized) the Test Samples or Test Compositions via oral gavage. The control cohort was dosed solely with CMC (2%) solution. […] Exp. Ther. 1965, 150, 165-171). The thickness of the paw was measured at the ventral dorsal footpad using digital calipers prior to dosing and at 3 and 5 h after carrageenan injection. The change in the measured parameter (ΔP) for thickness of paw (Δmm) at n=3- and 5-hours after carrageenan injection is given by: ΔP=Pt=n-Pt=0 (I) The percent inhibition (% inhibition) at 3- or 5-hours in the measured parameter (P) due to the treatment is given as the difference between the % increase in the value of P in the control group and the treatment group at n=3- or 5-hours, with the % increase in the value of P given by: […]

Sprague-Dawley rats [3] = experiment: Anti-inflammatory activity (rat paw oedema) after subcutaneous or intramuscular injection; format: in vivo
Procedure: (§2) In Vivo Anti-inflammatory Activity and Gastric Toxicity. Groups of four rats were used for all studies. All doses were calculated as equivalent concentrations of Indo. […] For subcutaneous and intramuscular administration, rats were injected with 125-200 μL volumes of the test compositions (IndoH or [Cu2(Indo)4(OH2)2] in MCT oil). The control cohort was injected with equivalent volumes of neat MCT. Subcutaneous injections were made in the lower dorsal surface and intramuscular injections were made in the right hind thigh muscle. Inflammation was induced 1 h after dosing by injection of the formulation by an injection of carrageenan (0.1 mL, 1% w/v in isotonic saline) into the plantar region of the hind paw.
(§3) Paw volume was measured prior to dosing and at 3 h after carrageenan injection by immersing the left hind paw (to the lateral malleus) into a vessel filled with water as described in Example 5. Immediately after paw volume measurements, 24 h-fasted animals were euthanised and the stomach was excised and opened by incision along the greater curvature.

Sprague-Dawley rats [4] = experiment: Gastric toxicity after subcutaneous or intramuscular injection; conditions: rat, in vivo, 4 h
Procedure: as §2, §3

Sprague-Dawley rats [5] = experiment: Observation of the site of the subcutaneous injection; format: in vivo, rat; conditions: rat, in vivo, sc
Procedure: as §2

Sprague-Dawley rats [6] = experiment: Anti-inflammatory activity (rat paw oedema) of topical creams; format: in vivo; conditions: topical emulsifying cream
Procedure: All rat experiments were performed as outlined in Example 7, except for the following changes. In Vivo Anti-inflammatory Activity and Gastric Toxicity. For topical administration, rats were treated with test compositions containing [Cu2(Indo)4(OH2)2] (“CuIndo”), [Zn(Indo)2(OH2)2] (“ZnIndo”), IndoH, or an equivalent Indo and Cu dose of a physical mixture of [Cu2(OAc)4(OH2)2] and IndoH thoroughly mixed in an emulsifying cream (see below). An amount of 0.2 g of the composition was applied to the right hind paw of each animal and gently massaged in for 1 minute at three-hourly intervals. Inflammation was induced at the final topical application with an injection of carrageenan (0.1 mL, 1% w/v in isotonic saline) into the plantar region of the hind paw. The composition for topical application was a composition comprising 0.5-2% w/w of Indo delivered as [Cu2(Indo)4(OH2)2] (“CuIndo”), [Zn(Indo)2(OH2)2] (“ZuIndo”), IndoH or an equivalent Indo and Cu dose of a physical mixture of [Cu2(OAc)4(OH2)2] and IndoH in an emulsifying cream, the emulsifying cream consisting of: […]

Sprague-Dawley rats [7] = experiment: Small intestinal toxicity of topical creams; conditions: rat, in vivo
Procedure: In Vivo Small Intestinal Toxicity.
All rat experiments were performed as outlined in Example 7, except for the following changes.
In Vivo Anti-inflammatory Activity and Gastric Toxicity. For topical administration, rats were treated with test compositions containing [Cu2(Indo)4(OH2)2] (“CuIndo”), [Zn(Indo)2(OH2)2] (“ZnIndo”), IndoH, or an equivalent Indo and Cu dose of a physical mixture of [Cu2(OAc)4(OH2)2] and IndoH thoroughly mixed in an emulsifying cream (see below). An amount of 0.2 g of the composition was applied to the right hind paw of each animal and gently massaged in for 1 minute at three-hourly intervals. Inflammation was induced at the final topical application with an injection of carrageenan (0.1 mL, 1% w/v in isotonic saline) into the plantar region of the hind paw.

Sprague-Dawley rats [8] = experiment: Acute gastric ulceration after oral administration; format: in vivo, rat; conditions: for gastric ulceration: 10 mg kg^−1 dose of Indo
Procedure: Gastrointestinal Ulceration: To assess gastric damage, rats (n=4 per group) were fasted overnight with free access to water prior to the oral administration (non-anaesthetized) of the Test Samples or Test Compositions via oral gavage. The controls were dosed with CMC (2%) solution. Three hours after dosing, the rats were euthanised and the stomach was excised and opened by incision along the greater curvature. The stomach was rinsed, submerged in 10% formaldehyde for 1 h and examined to determine the extent of macroscopic gastric damage.
as §1
In order to illustrate the adverse effects of decomposition of the copper complex in the formulation, the gastric toxicity of IndoH, Cu-acetate, a physical mixture of Cu-acetate and IndoH and [Cu2(Indo)4(DMF)2] were tested at equivalent doses of Indo (10 mg kg^−1) and/or Cu in the MCT paste or a 2% (w/v) aqueous solution of carboxymethylcellulose (CMC). The MCT paste formulations were prepared as described in Example 3 but using IndoH, Cu-acetate, a physical mixture of Cu-acetate and IndoH, or [Cu2(Indo)4(DMF)2] instead of [Cu2(Indo)4(OH2)2]. The gastric toxicity was tested as described above. The results of these experiments are illustrated in FIG. 3.
In further experiments designed to test the toxicity of solutions of the Cu complex, the [Cu2(Indo)4(DMF)2] complex was dissolved in DMF and gastric toxicities were assessed. […] Similar results would be expected using other complexes, including [Cu2(Indo)4(OH2)2], in a non-colloidal solution.

Question: What does the source list for COc1ccc2c(c1)c(CC(=O)O)c(C)n2C(=O)c1ccc(Cl)cc1 [IndoH, 1-(4-chlorobenzoyl)-5-methoxy-2-methyl-1H-indole-3-acetic acid]?
Answer: Small intestine ulceration (mm^2) (Sprague-Dawley rats [1]; listed as Sample I): 177.0±4.4 mm^2; ED50 (Sprague-Dawley rats [2]; delivered in CMC): 2.8 ± 1.7 mg/kg; ED50 (Sprague-Dawley rats [2]; delivered in MCT paste): 1 mg/kg; percent inhibition in rat hind-paw diameter change, 3-hr (Sprague-Dawley rats [2]): 21(8) %; percent inhibition in rat hind-paw diameter change, 3-hr (Sprague-Dawley rats [2]; listed as Indomethacin): 21(8)%; percent inhibition in rat hind-paw diameter change, 5-hr (Sprague-Dawley rats [2]): 25(6) %; percent inhibition in rat hind-paw diameter change, 5-hr (Sprague-Dawley rats [2]; listed as Indomethacin): 25(6)%; Percent inhibition (Sprague-Dawley rats [3]; intramuscular, fasting rats, 5 mg/kg equivalent dose of Indo): 38.7%; Percent inhibition (Sprague-Dawley rats [3]; intramuscular, fasting rats, 10 mg/kg equivalent dose of Indo): 49.4%; Percent inhibition (Sprague-Dawley rats [3]; subcutaneous, 7.5 mg/kg of Indo, non-fasting): 34%; Gastric ulcers (mm^2) (Sprague-Dawley rats [4]; 5 mg/kg): 1, 0, 1, 2 mm^2; Gastric ulcers (mm^2) (Sprague-Dawley rats [4]; 10 mg/kg): 12, 3, 8, 20 mm^2; adverse effect at the site of the injection (Sprague-Dawley rats [5]): None of the rats exhibited soreness, swelling, redness or any other adverse effect; Efficacy (% inhib) (Sprague-Dawley rats [6]; conc. 0.5 % equiv of Indo): 18.6 % inhib; Efficacy (% inhib) (Sprague-Dawley rats [6]; conc. 0.75 % equiv of Indo): 60.8 % inhib; Efficacy (% inhib) (Sprague-Dawley rats [6]; conc. 1 % equiv of Indo): 35 % inhib; Efficacy (% inhib) (Sprague-Dawley rats [6]; conc. 2 % equiv of Indo): 42 % inhib; intestinal bleeding (Sprague-Dawley rats [7]): ^bOvert intestinal bleeding.

Question: Which gastric ulceration (Sprague-Dawley rats [8]; complex dissolved in DMF alone) does the source give for CN(C)C=O.CN(C)C=O.COc1ccc2c(c1)c(CC(=O)[O-])c(C)n2C(=O)c1ccc(Cl)cc1.COc1ccc2c(c1)c(CC(=O)[O-])c(C)n2C(=O)c1ccc(Cl)cc1.COc1ccc2c(c1)c(CC(=O)[O-])c(C)n2C(=O)c1ccc(Cl)cc1.COc1ccc2c(c1)c(CC(=O)[O-])c(C)n2C(=O)c1ccc(Cl)cc1.[Cu+2].[Cu+2] [[Cu2(Indo)4(DMF)2], bis(N,N-dimethylformamide)tetrakis-μ-(O,O′-Indo)dicopper(II)] here?
Answer: > 200 mm^2

Question: And the gastric ulceration (Sprague-Dawley rats [8]; complex in DMF containing 2% CMC)?
Answer: 100 mm^2

Question: What about the “gastric damage in 0.5 mL MCT paste compared with 0.5 mL of 2% (w/v) CMC solution” value (Sprague-Dawley rats [8]; oral, equivalent doses of Indo (10 mg kg^−1) and/or Cu, FIG. 3) of the same molecule?
Answer: less GI toxicity for the MCT formulation compared to the CMC formulation

Question: And the “gastric ulcerations compared to the control” value (Sprague-Dawley rats [8]; oral, equivalent doses of Indo (10 mg kg^−1) and/or Cu, [Cu2(Indo)4(DMF)2] in MCT paste, Cu-acetate in CMC solution or MCT paste, FIG. 3)?
Answer: no significant gastric ulcerations

Question: What about the “Gastric ulceration (mm^2)” value (Sprague-Dawley rats [8]; rats fasted overnight, oral gavage, 3 h after dosing, IndoH 10 mg kg^−1, complexes 11 mg kg^−1, mean ± sem, listed as Sample M) of the same molecule?
Answer: 49±7 mm^2 and 49.0±6.7 mm^2

Question: What about the “Small intestine ulceration (mm^2)” value (Sprague-Dawley rats [1]; listed as Sample M) of the same molecule?
Answer: 8.7±2.9 mm^2

Question: What does the source list for COc1ccc2c(c1)c(CC(=O)[O-])c(C)n2C(=O)c1ccc(Cl)cc1.COc1ccc2c(c1)c(CC(=O)[O-])c(C)n2C(=O)c1ccc(Cl)cc1.O.O.[Zn+2] [ZnIndo, [Zn(Indo)2(OH2)2]]?
Answer: Efficacy (% inhib) (Sprague-Dawley rats [6]; conc. 0.5 % equiv of Indo): 29 % inhib; Efficacy (% inhib) (Sprague-Dawley rats [6]; conc. 1 % equiv of Indo): 41 % inhib
